The test deals with P. falciparum 3D7 growth, pLDH absorbance. As to the kind of experiment: P. falciparum 3D7 growth inhibition, dose response, strain 3D7 (AID 2305).

In general, IC50 refers to the concentration that gives 50% inhibition. High values mean lower potency, low ones higher potency. With `CC1CN(c2cc(=O)n(Cc3cccc(NC(=O)Nc4ccc(-c5ccccc5)cc4)c3)cn2)CC(C)N1` (stereo not drawn), the IC50 amounted to 400 nM. In turn, `CCc1nc(N)nc(N)c1-c1ccccc1` came in with an IC50 of 1180 nM. Compound `CCc1cc([C@H]2O[C@@H](n3cnc4c(NCC(c5ccccc5)c5ccccc5)nc(NCCNc5ccccn5)nc43)[C@H](O)[C@@H]2O)on1` returned an IC50 of 890 nM. Consider `Cc1cccc(-n2c(=O)c3c4c(sc3n3c(SCCC(C)C)nnc23)CCCC4)c1`, for which the IC50 was 760 nM. This IC50 and that of the compound before are within 1.5-fold of each other. Consider `c1ccc2[nH]c(-c3ccc(-c4ccc(CNC5CC5)cc4)s3)nc2c1`, for which the IC50 was determined as 1050 nM. `CC[C@H]1CN2CC[C@H]1C[C@H]2[C@H](O)c1cc(N2CCC3CCCCC3C2)nc2ccc(OC)cc12` (stereo partly drawn): the IC50 was 170 nM. Compared with the last compound, the IC50 is about 6.2-fold lower.

With `CS(=O)(=O)Cc1ccc(Nc2nccc(-c3c(-c4cccc(NC(=O)c5c(F)cccc5F)c4)nn4ncccc34)n2)cc1`, the IC50 stood at 160 nM. Compound `CN(C)CCNCc1ccc(-c2ccc3c(Nc4ccc(F)cc4Cl)ccnc3c2)o1` gave an IC50 of 140 nM. The IC50 values of the last two compounds are within 1.5-fold of each other.

As for `COc1ccc(NC(=O)[C@H](CC(C)C)Nc2cc(C)nc(NCCOc3ccccc3)n2)cc1`, the IC50 was 800 nM. Consider `COc1ccc(Nc2nccc(N3CCC(NC(=O)Nc4ccc5c(c4)OCO5)C3)n2)cc1` (stereo not drawn), for which the IC50 is 600 nM. `O=C(c1ccc(-c2ccc(-c3nc4ccc(F)cc4[nH]3)cc2)cc1)N1CCCCC1CN1CCC(O)C1` (stereo not drawn) registered an IC50 of 370 nM. Consider `NCC(=O)Nc1cccc(Nc2nccc(-c3c(-c4cccc(NC(=O)c5ccccc5)c4)nn4ccccc34)n2)c1`, for which the IC50 came to 430 nM. For `N#Cc1cncc(-c2nc3c(N4CCC(Cc5ccccc5)CC4)cccc3n2C2CCNC2)c1` (stereo not drawn), the IC50 was determined as 990 nM.

`FC(F)(F)c1cccc(NC(=S)NN=Cc2ccccn2)c1` had an IC50 of 350 nM.

Regarding `COc1cc(NC(=O)c2cccc([N+](=O)[O-])c2)cc(S(=O)(=O)c2ccc(Cl)cc2)c1`, the IC50 is 1130 nM. With `CCC(=O)N[C@@H]1CN[C@@H](C#Cc2cc3c(Nc4ccc(OCc5cccc(F)c5)c(Cl)c4)ncnc3s2)C1`, the IC50 was 1120 nM. On to `Cc1ccc(NC(C)C(=O)Nc2ccccc2)cc1S(=O)(=O)N1CCCCCC1` (stereo not drawn), for which the IC50 turned out to be 60 nM. Regarding `CS(=O)(=O)Cc1ccc(Nc2nccc(-c3c(-c4cccc(NC(=O)C5CCCCC5)c4)nn4ncccc34)n2)cc1`, the IC50 was determined as 200 nM. Regarding `COc1ccc(CN(C)CCCc2ccc(NC(=O)c3cc4ccccc4[nH]3)cc2)cc1OC`, the IC50 came to 730 nM. `O=C1C(C2CCC(c3ccc(Cl)cc3)CC2)=C2OCC3COC2(O3)c2ccccc21` (stereo not drawn) had an IC50 of 40 nM. `Cc1ccc(-n2nc(C)c3c2NC(=O)CSC3c2ccsc2)cc1` (stereo not drawn): the half-maximal inhibitory concentration (IC50) stood at 1010 nM. As for `CCC(=O)c1c(C)n(-c2ncnc3c2nc(C)n3-c2ccc(C)cc2C)c2ccccc12`, the figure is 650 nM.

As for `CCOC(=O)C(=CNc1ccc(Cc2cnc(N)nc2N)cc1CC)C(=O)OCC`, the IC50 turned out to be 1140 nM.

Compound `Cc1cc(Nc2ccncc2)n2nc(C)c(-c3ccc(Cl)cc3)c2n1` returned an IC50 of 160 nM. For `OCC1CCN(Cc2ccc(-c3ccc(-c4nc5ccc(F)cc5[nH]4)cc3)cc2)CC1`, the IC50 stood at 840 nM.

For the compound `FC(F)(F)c1ccc2nc(-c3cccc(-c4cccc(CN5CCN(c6ccncc6)CC5)c4)c3)[nH]c2c1`, the IC50 stood at 160 nM. The compound `Cc1cc(NC(=O)c2ccsc2)ccc1OC1CCN(Cc2ccc(F)cc2)CC1` displayed an IC50 of 1220 nM. With `CN1CCN(c2ccc(-c3cccc(NC(=O)c4ccc5ccccc5c4)c3)nn2)CC1`, the IC50 is 380 nM. This IC50 lies about 3.2-fold lower than the previous one. For `Cc1c(CN2CCC(N3CCC(C(=O)NC4CC4)CC3)CC2)[nH]c2c(Cl)cccc12`, the IC50 turned out to be 1190 nM.

`Cc1ccccc1C1CCN(C2CCC(NC(=O)/C=C/c3c(F)ccc(F)c3F)CC2)CC1` (stereo not drawn) displayed an IC50 of 1260 nM. Turning to `CC(CN1CCN(C)CC1)C(=O)Nc1ccc(-c2cccc(-c3nc4ccc(F)cc4[nH]3)c2)cc1` (stereo not drawn), the IC50 came to 520 nM. As to `COc1ccc(NC(=O)/C=C/c2ccccc2Cl)cc1OCCN1CCC(N2CCCC2)CC1`, the IC50 turned out to be 790 nM. In turn, `CC12CCC(=O)N1C(C(=O)Nc1cccc(C(=O)Nc3cccc(C(F)(F)F)c3)c1)CS2` (stereo not drawn) displayed an IC50 of 360 nM.

For the origin of these results see PubChem BioAssay AID2305 (GlaxoSmithKline (GSK), 2010).
